{"source": "patent US20100179091A1", "about": "“Treatment of Conditions Related to Shock” (THE REGENTS OF THE UNIVERSITY OF CALIFORNIA, priority 2007, published 2010)", "system": "shock induced in lab rodents", "assay": "Survival of lab rodents after induced shock, treated with digestive enzyme inhibitor", "type": "in vivo, rodent", "description": "The present invention is based on the latest research using rodent models of human hemorrhagic shock. Here it has been discovered that the sudden lowering of blood pressure that occurs in people suffering from […] can provoke the body's digestive enzymes to break down the body's own intestinal and other tissues as if it were food. Such enzymes' abnormal actions may be defined as “auto-digestion.” Auto-digestion is dangerous because not only does it injure healthy tissue but also contributes to multi-organ failure, which can be fatal.\nThe healthy cells of the animals' intestinal tissue react to auto-digestion by releasing a slew of substances that can be toxic to the heart and other body organs. These substances, termed cytotoxic mediators, can reach these body organs via the blood stream. In recent studies, shock was induced in 19 lab rodents, all of which were then treated with therapies that mirror the emergency room care given to many human patients who suffer shock, which typically occurs when blood flow to the heart, lungs and other body organs is slowed as a result of trauma, dehydration, heart attack, stroke or radiation.\nA total of 10 of the 19 lab rodents in shock were also treated with the experimental digestive enzyme inhibitor called ANGD. […] However, only one of the nine “untreated” animals in shock survived. […]", "data": [{"smiles": "CS(=O)(=O)O.CS(=O)(=O)O.N=C(N)Nc1ccc(C(=O)Oc2ccc3cc(C(=N)N)ccc3c2)cc1", "note": "[ANGD]", "values": [{"measurement": "animals surviving", "setting": "10 of 19 lab rodents in shock treated with ANGD plus basic shock care, one of nine untreated survived", "value": "Eight of the ten survived"}, {"measurement": "survival rate", "setting": "lab animals in which shock had been induced", "value": "dramatically improved the survival rate"}]}]}
